Results on 23 compounds are retold here after ChEMBL document CHEMBL5113455, “Discovery of benzyloxyphenyl- and phenethylphenyl-imidazole derivatives as a new class of ante-drug type boosters” (Bioorg Med Chem Lett, 2022).

SMILES strings stand for the structures.

One may read the inhibition as the drop in the measured response relative to a control, in per cent. A higher inhibition goes with strong suppression.

The first series deals with CYP3A4. Nature of the series: in vitro. Conditions: rat, microsomes.
The compound `CC(=O)N1CCN(c2ccc(OCC3COC(Cn4ccnc4)(c4ccc(Cl)cc4Cl)O3)cc2)CC1` (centres undefined) [KETOCONAZOLE] yielded an inhibition at 10 min, 10 µM of 94.4%.

The series is the same for the next values; noted with them: rat, rat liver microsomes, probe midazolam.
In the case of `CCCCCCOC(=O)c1ccc(COc2ccc(-n3ccnc3)cc2)cc1`, the inhibition at 10 min, 10 µM stood at 72.2%. The same measure, in the same setting: as for `N#Cc1ccc(COc2ccc(-n3ccnc3)cc2)cc1`, the figure is 88.1%; as for `Nn1nnc2ccccc21`, 80.8%; as for `O=C(O)c1ccc(CCc2ccc(-n3ccnc3)cc2)cc1`, 15.5%. Same read-out and setting: to `OCCOc1ccc(-n2ccnc2)cc1` belongs 6.7%; to `O=C(Oc1ccc(-n2ccnc2)cc1)c1ccc(C(F)(F)F)cc1`, 15.6%; to `OCc1ccc(COc2ccc(-n3ccnc3)cc2)cc1`, 84.7%. In turn, `O=C(OCC(F)(F)F)c1ccc(COc2ccc(-n3ccnc3)cc2)cc1` displayed an inhibition at 10 min, 10 µM of 10.4%. The same measure, in the same setting: as for `COC(=O)c1ccc(COc2ccc(-n3ccnc3)cc2)cc1`, the figure is 72%. Same read-out and setting: to `CCOC(=O)c1ccc(CCc2ccc(-n3ccnc3)cc2)cc1` belongs 74%; to `O=C(O)c1ccc(COc2ccc(-n3ccnc3)cc2)cc1`, 15.5%; to `COC(=O)c1ccc(CCc2ccc(-n3ccnc3)cc2)cc1`, 82.8%. The same measure, in the same setting: to `CCCCOC(=O)c1ccc(COc2ccc(-n3ccnc3)cc2)cc1` belongs 39.9%; to `c1ccc(COc2ccc(-n3ccnc3)cc2)cc1`, 82.5%; to `CCC(C)COC(=O)c1ccc(COc2ccc(-n3ccnc3)cc2)cc1` (centres undefined), 58.4%. `CC(=O)OCc1ccc(COc2ccc(-n3ccnc3)cc2)cc1` had an inhibition at 10 min, 10 µM of 87.1%. The same measure, in the same setting: to `CCCOC(=O)c1ccc(COc2ccc(-n3ccnc3)cc2)cc1` belongs 42.6%. Same read-out and setting: to `CCOC(=O)COc1ccc(-n2ccnc2)cc1` belongs 12.7%; to `CCCOC(=O)c1ccc(CCc2ccc(-n3ccnc3)cc2)cc1`, 90.4%; to `O=C(OCCc1ccccc1)c1ccc(COc2ccc(-n3ccnc3)cc2)cc1`, 61.8%. Take `CC(=O)OCCOc1ccc(-n2ccnc2)cc1`: the inhibition at 10 min, 10 µM is 34.7%. Still for that read-out and setting: to `O=C(Oc1ccc(-n2ccnc2)cc1)c1ccc(Cl)cc1` belongs 16.5%.

Tested on in another series: not listed separately
Nature of the series: Drug metabolism in rat liver microsome assessed as metabolite 4-[(4-imidazol-1-ylphenoxy)methyl]benzoic acid formation at 10 uM and measured upto 30 mins by liquid chromatography-tandem mass spectrometry. Format: ADME. Conditions: microsomes, 0.5 h. On the technique in general: Liver microsomes are vesicles of endoplasmic reticulum, rich in cytochrome P450 enzymes.
On to `COC(=O)c1ccc(COc2ccc(-n3ccnc3)cc2)cc1`, for which the Drug metabolism entry is on record as “Metabolite_Detected”.
